From US20070105779A1, “Isolated, ssx-2 and ssx-2 related peptides useful as hla binders and ctl epitopes, and uses thereof” (priority 2002, published 2007) come the findings set out here.

Assay [1] has as its system T cell clone LAU50/4D7. Nature of the assay: lysis assay, T2 cells pulsed with 1 μM peptide, T cell clone LAU50/4D7. The assay is classed as cell-based, human. The settings on record: peptide 1 μM, 37° C. 1 hour, T2 targets, 4 hours with T cells. As for the experimental part: In these assays, T2 cells were used as the target, and were incubated with each of the listed peptides, at a concentration of 1 μM, at 37° C. for 1 hour. The T2 cells were then washed to remove excess peptides, and the T cells were incubated with the peptide pulsed target T2 cells for 4 hours at 37° C.

Assay [2] deals with T cell clone LAU 50/4D7. The assay can be described thus: 51Cr release assay, T2 cells pulsed with serial dilutions of peptide, recognition by CTL clone LAU 50/4D7. The class given is cell-based, human. The settings on record: for EC50: T2 cells pulsed with peptide, read-out: 50% maximal lysis; for recognition by CTL clone LAU 50/4D7 (in words): 51Cr release assay. As for the experimental part: CTL clone LAU 50/4D7 was used in a ^51Cr release assay using standard methods. In brief, cells of target cell line Me275, which is a melanoma line derived from the same patient as was LAU 50/4D7, were labeled with ^51Cr for one hour at 37° C., as were control cells “T2.” This line, more accurately referred to as “CEMx721.T2,” is described by Salter, et al., Immunogenetics 21:235-248 (1985).
Cells were washed, three times, and then were incubated with the LAU 50/4D7 cells, at various effector:target ratios (0.1/1, 1/1, 10/1, 100/1) Four hours after incubation at 37° C., chromium in the supernatant was measured. Percent specific lysis was calculated as: [formula]
To determine T cell recognition of the peptides, standard ^51Cr release assays were performed using T2 cells pulsed with serial dilutions of each peptide. The peptide dose required to induce half maximal lysis was determined.

Assay [3] deals with T1, HLA-A2 (Homo sapiens, UniProt P04439, D140Y/D185E/D98H/E176V/E277Q/G131W/G231S/I119V/I121R/I166T/I218V/L300P/L318F/N151K/N90K/P208A/P217A/Q86G/Q94H/R138H/R169H/T345S).
T1 construct: using T2 cells, because these express HLA-A2; endogenous in cells; host or cells: T2 cells
The assay can be described thus: functional competition assay for peptide binding to HLA-A2 (inhibition of tyrosinase 368-376 recognition by CTL clone LAU 156/34 on T2 cells). The assay is classed as cell-based. The settings on record: for IC50: competitor peptide concentration for 50% inhibition of target cell lysis. As for the experimental part: T cell recognition by clone LAU 50/4D7 and binding to HLA-A2 by these peptides were determined experimentally. Peptide binding to HLA-A2 was determined in a functional competition assay.

In assay [4] the test system is LAU 50/4D7. Nature of the assay: 51Cr release assay with twelve known HLA-A2 binders, peptide specificity of LAU 50/4D7. The assay is classed as cell-based, human. The settings on record: HLA-A2+ target cells, peptide added after 51Cr labeling. The method, then:
In these assays, following ^51Cr labeling of the HLA-A2^+ target cells, peptides were added and then lysis was determined, as described supra.

Where [5] appears, read: relative to SEQ ID NO: 1 (=1), peptide dose for half maximal lysis, T2 cells, clone LAU 50/4D7.
Where [6] appears, read: second table, similar assays, relative to SEQ ID NO: 1.
The mark [7] stands for this setting: relative to SEQ ID NO: 1 (=1), concentration for 50% inhibition of target cell lysis.

Where “and” joins values, the source holds several entries; their conditions need not be identical. Identical values can stand only once. No end group written: not given here.

In the case of “GLYDGMEHL [SEQ ID NO: 35, derives from MAGE-A10; HLA-A2; negative control]”, in assay [1], the “% Lysis” value stood at 2%.
In general, IC50 refers to the concentration that gives 50% inhibition. The low end stands for greater potency, the high end for weaker potency. In the case of AAAPAIFYA [SEQ ID NO: 4], the EC50 in assay [2] (clone LAU 50/4D7) is over 100 nM. Moreover, the “Relative Recognition” value in assay [2] (setting [5]) is on record as <10^−5; in assay [2] (relative to SEQ ID NO: 17 (=1)) it was <10^−5; in assay [2] (setting [6]) it was <10^−6. The concentration for half-maximal inhibition (IC50) in assay [3] is 22 nM. The “Relative Binding” value amounted to 0.9 in assay [3] (setting [7]), 9 in assay [3] (relative to SEQ ID NO: 17 (=1)) and 0.9 in assay [3] (setting [6]).
For `CC[C@H](C)[C@H](NC(=O)[C@H](CCCCN)NC(=O)[C@@H]1CCCN1C(=O)[C@H](C)NC(=O)[C@H](C)NC(=O)[C@H](C)N)C(=O)N[C@@H](Cc1ccccc1)C(=O)N[C@@H](C)C(=O)N[C@@H](C)C(=O)O` [SEQ ID NO: 6], the EC50 in assay [2] (clone LAU 50/4D7) was over 100 nM. Moreover, the “Relative Recognition” value is 10^−5 in assay [2] (setting [5]), <10^−5 in assay [2] (relative to SEQ ID NO: 17 (=1)) and <10^−5 in assay [2] (setting [6]). This compound also gave a 50% inhibitory concentration (IC50) in assay [3] of 100 nM. Also, the “Relative Binding” value was found to be 0.2 in assay [3] (setting [7]), 2 in assay [3] (relative to SEQ ID NO: 17 (=1)) and 0.2 in assay [3] (setting [6]).
In the case of AAAAKIFYA [SEQ ID NO: 3], in assay [2] (clone LAU 50/4D7), the EC50 is 0.2 nM. Moreover, the “Relative Recognition” value in assay [2] (setting [5]) was 0.1; in assay [2] (relative to SEQ ID NO: 17 (=1)) it was 0.3; in assay [2] (setting [6]), 0.1. Also, the half-maximal inhibitory concentration (IC50) in assay [3] worked out at 133 nM. In addition, the “Relative Binding” value stood at 0.16 in assay [3] (setting [7]), 1.5 in assay [3] (relative to SEQ ID NO: 17 (=1)) and 0.16 in assay [3] (setting [6]).
For “NY-ESO-1157-165: known HLA-A2 binder peptide”, in assay [4], the “recognition of known HLA-A2 presented peptides by LAU 50/4D7” value (“recognition … by LAU 50/4D7” for short) was “failed to recognize”.
As to AAAPKAFYA [SEQ ID NO: 5], the EC50 in assay [2] (clone LAU 50/4D7) was found to be 0.3 nM. Besides, the “Relative Recognition” value in assay [2] (setting [5]) amounted to 0.05; in assay [2] (relative to SEQ ID NO: 17 (=1)) it was 0.2; in assay [2] (setting [6]) it was 0.06. Moreover, the half-maximal inhibitory concentration (IC50) in assay [3] was 200 nM. Moreover, the figures for the “Relative Binding” value in assay [3] (setting [7]), in assay [3] (relative to SEQ ID NO: 17 (=1)) and in assay [3] (setting [6]) were 0.1, 1 and 0.1, respectively.
Regarding “gp100208-217: known HLA-A2 binder peptide (TITDQVPFSV; UniProt P40967 208-217, looked up, fragment)”, in assay [4], the “recognition … by LAU 50/4D7” value is “failed to recognize”.
Turning to AASEKIFYV [SEQ ID NO: 18], the “recognition by CTL clone LAU 50/4D7 (in words)” value (“recognition … (in words)” below) in assay [2] was “at least equal to the natural peptide”. The EC50 in assay [2] (clone LAU 50/4D7) amounted to 0.06 nM. Moreover, in assay [2] (relative to SEQ ID NO: 17 (=1)), the Relative Recognition is 1.
Regarding `CC[C@H](C)[C@H](NC(=O)[C@H](CCCCN)NC(=O)[C@H](CCC(=O)O)NC(=O)[C@H](CO)NC(=O)[C@H](C)NC(=O)[C@@H](N)CCCCN)C(=O)N[C@@H](Cc1ccccc1)C(=O)N[C@@H](Cc1ccc(O)cc1)C(=O)N[C@H](C(=O)O)C(C)C` [SEQ ID NO: 17, reference compound], the “recognition … (in words)” value in assay [2] is “in the same range as that of SEQ ID NO: 1”. Also, the EC50 in assay [2] (clone LAU 50/4D7) was found to be 0.06 nM. For the same compound, the “% Lysis” value in assay [1] is 70% and 68%.
On to “tyrosinase1-9: known HLA-A2 binder peptide (MLLAVLYCL; UniProt P14679 1-9, looked up, fragment)”, for which the “recognition … by LAU 50/4D7” value in assay [4] was “failed to recognize”.
Turning to “gp100280-288: known HLA-A2 binder peptide”, the “recognition … by LAU 50/4D7” value in assay [4] was “failed to recognize”.
For AAAPKIFYA [SEQ ID NO: 1], the “recognition … (in words)” value in assay [2] is recorded as “most active”; in assay [2] (listed as 1) it was “at least equal to the natural peptide”. Also, the EC50 in assay [2] (clone LAU 50/4D7) is 0.02 nM. Moreover, the “Relative Recognition” value in assay [2] (setting [5]) is 1; in assay [2] (relative to SEQ ID NO: 17 (=1)), 3. The compound further returned an IC50 in assay [3] of 20 nM. Besides, the entries for the “Relative Binding” value in assay [3] (setting [7]) and in assay [3] (relative to SEQ ID NO: 17 (=1)) were 1 and 10, respectively.
With AAGPKIFYA [SEQ ID NO: 2], the EC50 in assay [2] (clone LAU 50/4D7) worked out at 2 nM. The “Relative Recognition” value stood at 0.01 in assay [2] (setting [5]) and 0.03 in assay [2] (relative to SEQ ID NO: 17 (=1)). The same compound returned an IC50 in assay [3] of 286 nM. In addition, the “Relative Binding” value in assay [3] (setting [7]) was determined as 0.07; in assay [3] (relative to SEQ ID NO: 17 (=1)), 0.7.
